The values that follow are results of earlier work, collected in patent US4405354A, “Elimination of odors from waste material” (priority 1980, dated 1983).

Like-named read-outs stand apart in the source and are kept apart here.

In the case of `N` [aqueous ammonia], the Kb was 1.374 × 10^-5 (0 °C); 1.479 × 10^-5 (5 °C); 1.570 × 10^-5 (10 °C); 1.652 × 10^-5 (15 °C); 1.710 × 10^-5 (20 °C); 1.774 × 10^-5 (25 °C). In addition, the Kb reads like this: (30 °C) 1.820 × 10^-5; (35 °C) 1.849 × 10^-5; (40 °C) 1.862 × 10^-5; (45 °C) 1.879 × 10^-5; (50 °C) 1.892 × 10^-5.
